Read-outs that look alike come from different tables or passages of the source.
Tests used:
BACE-1 = BACE-1 mRNA expression in HTB-11 cells (RT-PCR)
Experimental: (§9) SH-SY5Y human neuroblastoma cells (ATCC, USA) were cultured in Dulbecco's modified Eagle's medium/Ham's nutrient mixture (DMEM-F12) (Invitrogen, USA), and HTB-11 human neuroblastoma cells (ATCC, USA) were cultured in Minimum Essential Medium Alpha Medium (MEM-α) (Invitrogen, USA). […] All treatments were performed under a sterile hood.
(§10) After the treatment time-period, cells were harvested, and total RNA was extracted using RNeasy RNA Isolation kit (Qiagen) following the manufacturer's procedures. Total RNA yield was determined using a Spectrophotometer RNA/DNA calculator (Pharmacia Biotech). Total RNA concentration was then standardized for semi-quantitative RT-PCR, which was carried out in a Geneamp Thermocycler PCR System 9700 (P.E. Applied Biosystems). […] PCR products and a 100 bp DNA marker were then loaded in a 2% agarose gel stained with ethidium bromide. Gel electrophoresis was performed using a power-supply (E-C Apparatus Corp.) set at 110V with constant amperage for 1.5 hours. Gels were then photographed using a Gel Documentation System (UVP), and bands analyzed using Gel-Pro Analyzer (MediaCybernetics) on a P4 Windows machine.

[1] = test system: SK-N-SH neuroblastoma cell line; test: Cellular morphology (Form Factor) of neuroblastoma cells; type: cell-based, human
pedal ganglia = test: NO release from excised pedal ganglia (NO-selective microprobe); type: cell-based, Mytilus edulis; conditions: for NO Peak Level / NO Peak Time: ligand 10^−7 M
Experimental: For the nitric oxide assay, ten pedal ganglia (per determination) dissected from M. edulis were bathed in 1 mL sterile phosphate buffered saline (PBS). […] For the opiate receptor antagonist experiments, ganglia were pretreated with naloxone for 10 minutes prior to reticuline addition. NO release was monitored with an NO-selective microprobe manufactured by World Precision Instruments (Sarasota, Fla.). The sensor was positioned approximately 100 μm above the respective tissue surface. […] The NO detection system was calibrated daily. The probe was allowed to equilibrate for 10 minutes in the incubation medium free of tissue before being transferred to vials containing the ganglia for another 5 minutes. Manipulation and handling of the ganglia was only performed with glass instruments. Data was acquired using the Apollo-4000 free radical analyzer (World Precision Instruments, Sarasota, Fla.). The experimental values were then transferred to Sigma-Plot and -Stat (Jandel, Calif.) for graphic representation and evaluation.

BACE-2 = BACE-2 mRNA expression in HTB-11 cells (RT-PCR)
Experimental: as §9, §10

PMNs = test: PMN activation level by computer-assisted image analysis (form factor); conditions: mixed with L-DOPA-treated PMNs
Experimental: The morphological measurements of PMNs were based on cell area and perimeter determinations by the use of image analysis software (Compix, Mars, Pa.). […] The observational area used for measurement determinations and frame-grabbing was 0.4 μm in diameter.
After this incubation, the PMNs were evaluated for their activity level via computer-assisted image analysis.

[2] = test system: SK-N-SH neuroblastoma cell line; test: NO release from SK-N-SH neuroblastoma cells
Experimental: The human SK-N-SH neuroblastoma cell line (ATCC #HTB-11) was used as a cellular model. Cells were propagated in Minimum Essential Medium alpha (MEMα) with 10% fetal bovine serum (FBS), 2% penicillin/streptomycin, 1.5 g/L NaHCO3, and 1.0 mM pyruvic acid. A 5% CO2 incubator (NAPCO) at 37° C. was used for maintenance of temperature and pH. […] When needed, cells were plated in 6- or 12-well plates using a hemocytometer (2×10^5 cells/well in 6-well plates or 1×10^5 cells/well in 12-well plates). Experimental manipulations were performed under sterile conditions under a lamina airflow hood after cells had adhered to the bottom of the plates.

mu3 opiate receptor = biological target: T1, mu3 opiate receptor (Homo sapiens, UniProt P35372); test: biochemical; type: binding
T1 construct: An additional 100 excised pedal ganglia and the human monocytes were separately washed and homogenized; host or cells: human monocytes
T1 sequence (P35372 1-314 isoform P35372-14): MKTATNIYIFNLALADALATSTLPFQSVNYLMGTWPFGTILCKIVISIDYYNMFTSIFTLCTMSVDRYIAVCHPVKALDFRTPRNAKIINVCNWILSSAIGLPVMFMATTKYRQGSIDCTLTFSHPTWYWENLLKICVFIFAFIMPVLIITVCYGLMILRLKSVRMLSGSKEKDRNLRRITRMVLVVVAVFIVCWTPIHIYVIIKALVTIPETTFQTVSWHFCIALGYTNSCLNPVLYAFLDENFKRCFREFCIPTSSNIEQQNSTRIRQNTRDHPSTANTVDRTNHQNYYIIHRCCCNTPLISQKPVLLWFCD
Experimental: For the nitric oxide assay, ten pedal ganglia (per determination) dissected from M. edulis were bathed in 1 mL sterile phosphate buffered saline (PBS). […] NO release was monitored with an NO-selective microprobe manufactured by World Precision Instruments (Sarasota, Fla.). The sensor was positioned approximately 100 μm above the respective tissue surface. […] The NO detection system was calibrated daily. The probe was allowed to equilibrate for 10 minutes in the incubation medium free of tissue before being transferred to vials containing the ganglia for another 5 minutes. Manipulation and handling of the ganglia was only performed with glass instruments. Data was acquired using the Apollo-4000 free radical analyzer (World Precision Instruments, Sarasota, Fla.). The experimental values were then transferred to Sigma-Plot and -Stat (Jandel, Calif.) for graphic representation and evaluation.
An additional 100 excised pedal ganglia and the human monocytes were separately washed and homogenized in 50 volumes of 0.32 M sucrose, pH 7.4, at 4° C. using a Brinkmann polytron (30 seconds, setting no. 5). The crude homogenate was centrifuged at 900×g for 10 minutes at 4° C., and the supernatant was reserved on ice. The whitish crude pellet was resuspended by homogenization (15 seconds, setting no. 5) in 30 volumes of 0.32 M sucrose/Tris-HCl buffer, pH 7.4, and centrifuged at 900×g for 10 minutes. The extraction procedure was repeated one more time, and the combined supernatants were centrifuged at 900×g for 10 minutes. The resulting supernatants (S1′) were used immediately. […] The P2 pellet was then re-suspended with a Dounce hand-held homogenizer (10 strokes) in 100 volumes of buffer. […]
Aliquots of membrane suspension (0.2 mL, 0.12 mg of membrane protein) were incubated in triplicate at 22° C. for 40 minutes with the appropriate radiolabeled ligand in the presence of dextrorphan (10 mM) or levorphanol (10 mM) in 10 mM Tris-HCl buffer, pH 7.4, containing 0.1% BSA and 150 mM KCl. […] Protein concentration was determined in membrane suspensions (prepared in the absence of BSA).

[3] = test system: 20S Proteasome LMP7 Subunit (β5i); test: LMP7 immunoproteasome subunit mRNA expression (RT-PCR); type: cell-based, human; conditions: IFNγ 20 ng/mL, 24 hours; control 0.29±0.01
Experimental: (§1) Isolation of total RNA was performed via RNA MiniPrep Kit (QIAGEN). Concentration of RNA was determined via GeneQuant II Spectrophotometer (Pharmacia Biotech) by multiplying A260 value with dilution factor and nucleic acid constant (0.04). Agarose gel electrophoresis (1%) was used to check for RNA quality.
(§2) RT and PCR reactions were performed in GeneAmp PCR System 9700 (Applied Biosystems) using reverse transcriptase and Taq DNA Polymerase. Forward and reverse gene specific-primers for various subunits of the 20S proteasome and immunoproteasome were either obtained from the literature or designed through Primer Express Software 2.0 (Applied Biosystems) (Table 4). NMDA receptor subunit primers were also designed (Table 4). NMDA receptor expression was used as a marker of neurodegenerative disease.
(§3) All primers were optimized for annealing temperatures and cycles (Table 5). Gel electrophoresis (2% agarose, 0.01% ethidium bromide) was performed and analyzed using a UV transilluminator (UVP) and GelPro Analyzer Software (Applied Biosystems). Relative band intensity was normalized with β-Actin reference gene.

[4] = test system: Immunoproteasome LMP7 (β5i) Subunit; test: LMP7 polypeptide expression (Western blot); type: cell-based, human; conditions: IFNγ
Experimental: (§4) To determine protein concentrations, protein was harvested using the following buffer: 20 mM Hepes (Sigma), 100 mM NaCl (Fisher), 10 mM NaF (Sigma), 1% Triton X-100 (Sigma), 1 mM sodium orthovanadate (Sigma), 10 mM EDTA (Sigma), pH 7.4, 0.1% protease inhibitor cocktail (Sigma), and ddH2O. Homogenized samples were spun in an ultracentrifuge at 10,000G for 20 minutes at 4° C. Concentration was determined via the Bradford assay (Bio-Rad) using bovine serum albumin (BSA, Sigma) for standard curve. To eliminate any potential pipetting error, samples and standards were read in triplicate.
(§5) Western blotting was performed as follows. SDS-polyacrylamide gels (12% for separation and 5% for stacking) were made using the Mini Trans-Blot Cell (Bio-Rad). Based on the concentrations from the protein concentration determination assay, the proteins were mixed with 2× Protein Loading Buffer (0.2M DTT) for a final volume of 24 μL. Tris-Glycine Electrophoresis Buffer (1×) was used in SDS-PAGE, and proteins were separated at constant amperage (35 mA).
(§6) Subsequent protein transfer to a nitrocellulose membrane involved use of the Mini Trans-Blot Cell apparatus run at constant voltage (100V) for 40 minutes. […]
(§7) Substrate (Pierce) was administered as a means of stimulating chemiluminescence. Blots were developed and subsequently analyzed for relative band intensity using Gel-Pro software (Applied Biosystems).

[5] = test system: SK-N-SH neuroblastoma cell line; type: cell-based, human
Experimental: Cell viability was determined via Trypan blue exclusion. An inverted light microscope (Nikon) with a phase-contrast filter was used to observe the cells. Pictures of the cells were taken via a digital camera (Optronix) attached to the microscope ocular. Images were uploaded onto ImagePro Plus Software (Applied Biosystems), where cell viability was calculated based on both the number of cells covering the field and the cells that present as dead from the stain. In addition, ImagePro Plus was used for determining cellular morphology. The area and perimeter were found and used in the formula (4π*Area)/(Perimeter)^2, resulting in a value between 0 (a straight line) and 1 (a perfect circle).

[6] = test system: 20S Proteasome X (β5) Subunit; test: 20S proteasome X subunit protein (Western blot); type: cell-based, human; conditions: rotenone
Experimental: as §4, §5, §6, §7

26S proteasome = test: Chymotrypsin activity of the 26S proteasome (fluorometric); type: cell-based, human; conditions: rotenone 30 nM; morphine 5 μM; control 236±4.8
Experimental: (§8) Proteasome function assays were performed in an effort to examine the modulation in levels of protein degradation. Fluorometric assays were performed for both the chymotrypsin activity of the 26S proteasome as well as activity of the whole 20S proteasome using procedures adapted from Kotamraju et al. (Proc. Natl. Acad. Sci. USA, 100:10653-8 (2003)). Excitation at 365 nm and emission at 460 nM of the fluorogenic compound, […] (AMC), were measured using a Spectrofluoroscence Detector (McPherson).

NMDA NR2B Subunit = test: NMDA NR2B subunit mRNA expression (RT-PCR); type: cell-based, human
Experimental: as §1, §2, §3

20S proteasome = test: Activity of the whole 20S proteasome (fluorometric); type: cell-based, human; conditions: rotenone 30 nM; morphine 5 μM
Experimental: as §8

NMDA NR1 Subunit = test: NMDA NR1 subunit mRNA expression (RT-PCR); type: cell-based, human
Experimental: as §1, §2, §3

Mytilus animals = test: TNF-α-induced death of animals; conditions: 10 U/mL TNF-α by injection, after 4 days
Experimental: 100 healthy Mytilus animals were treated with 10 U/mL of TNF-α by injection.

[7] = 1 μM morphine, 10 μM pre-treatment for twenty minutes

C=CCN1CC[C@]23c4c5ccc(O)c4O[C@H]2C(=O)CC[C@@]3(O)[C@H]1C5 [naloxone]
effect of pre-treatment on morphine's effect on BACE-1 expression (BACE-1; [7]): blocked by naloxone | effect on morphine neuroprotection, Form Factor ([1]; 10 μM): reversal in morphine neuroprotection | effect of naloxone pre-treatment on reticuline-stimulated NO release (pedal ganglia; naloxone 10^−6 M, reticuline 10^−7 M): blocking the reticuline (10^−7 M) stimulated release of NO | effect of pre-treatment on morphine's effect on BACE-2 expression (BACE-2; [7]): blocked by naloxone | level of activation in mixed PMN population, IL-1β-treated cells co-treated with naloxone (PMNs): 35.2±6.3% | NO release induced by 10^−6 M morphine in presence of blocker ([2]; naloxone 10^−6 M, L-NAME 10^−4 M): 3.2 nM NO

COC1=C[C@]23CCN(C)[C@H](Cc4ccc(OC)c(O)c42)C3=CC1=O [Salutaridine, salutaridine]
NO Peak Level (pedal ganglia): 18.5 ± 3.3 nM | NO Peak Time (pedal ganglia): 8.9 ± 1.3 min | IC50 (mu3 opiate receptor): > 1000 nM

CN1CC[C@]23c4c5ccc(O)c4O[C@H]2[C@@H](O)CC[C@H]3[C@H]1C5 [Dihydromorphine, dihydromorphine]
NO Peak Level (pedal ganglia): 23.2 ± 3.7 nM | NO Peak Time (pedal ganglia): 0.9 ± 0.3 min | IC50 (mu3 opiate receptor): 19.1 ± 3.3 nM

IFNγ: interferon used to simulate an immune response
Form Factor (FF) ([1]; IFNγ treatment, control 0.54±0.02): 0.76±0.02 | LMP7 mRNA expression [3]: 0.93±0.06 | LMP7 polypeptide expression [4]: caused an increase in LMP7 polypeptide expression

CC(=O)NC(C(=O)O)C(C)(C)SN=O (racemic) [SNAP, S-Nitroso-N-acetyl-D, L-penicillamine]
BACE-1 expression (BACE-1; SNAP 1, 5, 10 μM, 4- and 24-hour exposures): reduced BACE-1 expression in a concentration dependent manner | BACE-2 expression (BACE-2; SNAP 1, 5, 10 μM, 4- and 24-hour timepoints): up regulated in a concentration dependent manner BACE-2 expression

CN1CC[C@]23c4c5ccc(O)c4O[C@H]2[C@@H](O)C=C[C@H]3[C@H]1C5.O=S(=O)(O)O [morphine sulfate]
peak NO release ([2]; morphine sulfate 5 μM, baseline 2 nM NO): 22.3 nM | confluency [5]: about 78%

C=C(C)[C@H]1Cc2c(ccc3c2O[C@@H]2COc4cc(OC)c(OC)cc4[C@@H]2C3=O)O1 [Rotenone]
X subunit protein band intensity [6]: 182 AU | activity of the chymotrypsin functional 26S active site (26S proteasome): 221 ± 4.8 pM | NR2B expression (NMDA NR2B Subunit; rotenone 30 nM (LD50), control 0.98±0.02): 1.22±0.08 AU | NR2B expression (NMDA NR2B Subunit; rotenone 40 nM): 1.49±0.02 AU | 20S proteasome activity (20S proteasome): Significant increase in activity of the 20S proteasome | LD50, cellular death of neuroblastoma cells ([5]; human): 30 nM | confluency ([5]; rotenone 30 nM, 48-hour incubation): about 45% | NR1 expression (NMDA NR1 Subunit; rotenone 30 nM (LD50), control 1.57±0.072): 1.22±0.010 AU | NR1 expression (NMDA NR1 Subunit; rotenone 40 nM): 1.21±0.028 AU

TNF-α
animals that died (Mytilus animals): about 20%

B1: IFNγ: interferon used to simulate an immune response (protein, UniProt P01579 24-161, looked up)
Interferon gamma: QDPYVKEAENLKKYFNAGHSDVADNGTLFLGILKNWKEESDRKIMQSQIVSFYFKLFKNFKDDQSIQKSVETIKEDMNVKFFNSNKKKRDDFEKLTNYSVTDLNVQRKAIHELIQVMAELSPAAKTGKRKRSQMLFRG
cellular death ([5]; IFNγ): did not cause significant cellular death
